Reference: US10317405B2, “Methods of detecting Akt3 and administering Ax1 inhibitor” (BERGENBIO ASA, priority 2012, dated 2019)

Legend:
MCF10A cells [1] = assay: Mesenchymal phenotype in 2D growth and invasive growth in 3D Matrigel of transduced MCF10A cells treated with Akt inhibitors; assay type: cell-based, human; conditions: inhibitor 10 μM, 12 hours
Experimental: (§1) MCF10A cells were cultured and transduced with retroviral constructs expressing myrAkt1, MyrAkt3 or Slug as described in FIGS. 1 and 3. The cells were treated with Akt inhibitors LY294002 (10 μM, Cell Signaling Technology, Cat. #9901) and Akt VIII (10 μM, Merck, Cat. #124018) for 12 hours as indicated. Cells were then either visualized at indicated magnification by phase-contrast microscopy, or seeded for invasive growth in 3D Matrigel as described in Example 3.

Akt = assay: Immunoblot of Akt activation (pAkt) in transduced MCF10A cells treated with Akt inhibitor; assay type: cell-based, human; conditions: inhibitor 10 μM, 12 hours
Experimental: as §1
(§2) MCF10A cells were cultured and transduced with retroviral constructs expressing myrAkt1, MyrAkt3 or Slug as described in FIGS. 1 and 3. The cells were treated with Akt inhibitor as described in FIG. 6. SDS/PAGE, immunoblotting and antibodies as described in Examples 1 and 4.

MCF10A cells [2] = assay: Immunoblot of EMT markers (N-cadherin, vimentin, E-cadherin) in transduced MCF10A cells treated with Akt inhibitor; assay type: cell-based, human; conditions: inhibitor 10 μM, 12 hours
Experimental: as §1, §2

Akt3 [3] = assay: Quantification of nuclear Akt3 immunofluorescence in mammary epithelial cells (HMEC); assay type: cell-based, human; conditions: 600 nM BGB324 (Axl TKI), 1 uM imatinib (cKit TKI), versus vehicle (DMSO), *P<0.05
Source text: Culturing of MDA-MB-231 cells was as described in Example 3. Primary human mammary epithelial cells (HMEC) were isolated as described (Garbe J C, Pepin F, Pelissier F A, Sputova K, Fridriksdottir A J, Guo D E, Villadsen R, Park M, Petersen O W, Borowsky A D, Stampfer M R, Labarge M A. Accumulation of multipotent progenitors with a basal differentiation bias during aging of human mammary epithelia. Cancer Res. 2012 Jul. 15; 72(14):3687-701) Localization of Akt3 (anti-Akt3-FITC, top panels) in MDA-MB-231 and primary human mammary epithelial cells (HMEC) as in Example 17. Nucleus was stained by DAPI (lower panels). Bar: 50 micron

Akt3 [4] = assay: SureFire assay detecting activated (phosphorylated) Akt3 in cells; assay type: cell-based; conditions: 10 nM insulin for 10 minutes
Experimental: A SureFire assay was used to specifically detect activated (phosphorylated) Akt3 in WM115, MCF7 and LNCaP cells. Briefly cells were lysated, and antibodies recognizing phosphorylated Akt (p473) and Akt3 were coupled to acceptor and donor beads as described by the manufacturer (PerkinElmer). Cells were either unstimulated or stimulated with 10 nM insulin for 10 minutes to activate Akt.

Question: With `O=c1[nH]c2ccccc2n1C1CCN(Cc2ccc(-c3nc4cc5nc[nH]c5cc4nc3-c3ccccc3)cc2)CC1` [AKT VIII] as the compound, how does the “mesenchymal phenotype induced by Akt3” value (MCF10A cells [1]; MCF10A cells expressing MyrAkt3) read?
Answer: inhibit

Question: What about the “mesenchymal/invasive phenotype induced by Slug in 2D and 3D growth” value (MCF10A cells [1]; MCF10A cells expressing Slug, 2D culture and 3D Matrigel) of the same compound?
Answer: inhibit

Question: And the “Akt activation (pAkt)” value (Akt)?
Answer: fully inhibit

Question: What about the “mesenchymal marker N-cadherin expression” value (MCF10A cells [2]) of the same compound?
Answer: significant reduction

Question: What about the “mesenchymal marker vimentin expression” value (MCF10A cells [2]) of the same compound?
Answer: significant reduction

Question: What about the “re-expression of the epithelial marker E-cadherin” value (MCF10A cells [2]) of the same compound?
Answer: Neither inhibitor led to re-expression

Question: And the “reversal of the mesenchymal phenotype / inhibition of EMT” value (MCF10A cells [2])?
Answer: partially reverse

Question: With `Nc1nc(Nc2ccc3c(c2)CC[C@@H](N2CCCC2)CC3)nn1-c1cc2c(nn1)-c1ccccc1CCC2` [BGB324, 1-(6,7-dihydro-5H-benzo[6,7]cyclohepta[1,2-c]pyridazin-3-yl)-N3-((7-(S)-pyrrolidin-1-yl)-6,7,8,9-tetrahydro-5H-benzo[7]annulene-2-yl)-1H-1,2,4-triazole-3,5-diamine] as the compound, how does the Akt3 nuclear localization (Akt3 [3]) read?
Answer: inhibit

Question: With “insulin: stimulus used to activate Akt in the SureFire assay” as the compound, how does the “Akt3 activity (phosphorylation) signal” value (Akt3 [4]; LNCaP prostate cells) read?
Answer: no signal

Question: What about the “Akt3 activity (phosphorylation) signal” value (Akt3 [4]; MCF7 breast epithelial cells) of the same compound?
Answer: no signal

Question: And the “Akt3 activity (phosphorylation)” value (Akt3 [4]; WM115 melanoma cells)?
Answer: significantly induce
